From US9193719B2, “1,2,4-triazol-5-ones and analogs exhibiting anti-cancer and anti-proliferative activities” (Deciphera Pharmaceuticals, LLC, priority 2013, dated 2015)

Key:
M-NFS-60 cells = assay: M-NFS-60 cell proliferation assay (resazurin); assay type: cell-based; conditions: 67 h incubation
Experimental: M-NFS-60 cells (catalog #CRL-1838) were obtained from the American Type Culture Collection (ATCC, Manassas, Va.). Briefly, cells were grown in suspension in RPMI 1640 medium supplemented with 10% characterized fetal bovine serum (Invitrogen, Carlsbad, Calif.), 0.05 mM 2-mercaptoethanol, and 20 ng/mL mouse recombinant macrophage colony stimulating factor (M-CSF) at 37° C., 5% CO2, and 95% humidity. Cells were allowed to expand until reaching saturation at which point they were subcultured or harvested for assay use.
M-NFS-60 Cell Proliferation Assay
A serial dilution of test compound was dispensed into a 384-well black clear bottom plate (Corning, Corning, N.Y.). Two thousand five hundred cells were added per well in 50 μL complete growth medium. Plates were incubated for 67 h at 37° C., 5% CO2, and 95% humidity. At the end of the incubation period 10 μL of a 440 μM solution of resazurin (Sigma, St. Louis, Mo.) in PBS was added to each well and incubated for an additional 5 h at 37° C., 5% CO2, and 95% humidity. Plates were read on a Synergy2 reader (Biotek, Winooski, Vt.) using an excitation of 540 nm and an emission of 600 nm. IC50 values were calculated from a series of percent inhibition values determined at a range of inhibitor concentrations using software routines as implemented in the GraphPad Prism software package.

[1] = system: phospho-FMS in THP-1 cells; assay: Phospho-FMS ELISA assay in THP-1 cells; assay type: cell-based; conditions: Homo sapiens, 4 h compound, M-CSF stimulation 5 min, read-out: pFMS inhibition in THP-1 cells
Experimental: THP-1 cells (catalog #TIB-202) were obtained from the ATCC. Briefly, cells were grown in RPMI 1640 supplemented with 10% characterized fetal bovine serum, 1% sodium pyruvate, 1% Penicillin-Streptomycin-Glutamine (PSG) and 55 uM 2-mercaptoethanol (Invitrogen, Carlsbad, Calif.) at 37 degrees Celsius, 5% CO2, 95% humidity. Cells were allowed to expand until reaching 70-95% confluency at which point they were subcultured or harvested for assay use.
A serial dilution of test compound was diluted 1:100 in assay medium (RPMI 1640 supplemented with 10% characterized fetal bovine serum) in a 96 well black clear bottom plate (Corning, Corning, N.Y.). In a separate 96 well black clear bottom plate, one hundred and fifty thousand THP-1 cells were added per well in 100 μL in assay medium. Fifty microliters of diluted compound was then added to the cells. Plates were incubated for 4 hours at 37 degrees Celsius, 5% CO2, 95% humidity. At the end of the incubation period, cells were stimulated with 50 μL of a 100 nM solution of recombinant human M-CSF (catalog #216-MC, R & D Systems, Minneapolis, Minn.) in assay medium and the plate was incubated for 5 minutes at 37 degrees Celsius, 5% CO2, 95% humidity. Lysates were prepared and used to perform the phospho-FMS ELISA as described by the manufacturer (catalog #DYC3268, R & D Systems, Minneapolis, Minn.). GraphPad Prism was used to calculate IC50 values obtained from data generated from the ELISA assay.

| Compound | IC50 [1] [µM] | IC50 (M-NFS-60 cells) [µM] |
| --- | --- | --- |
| Cc1nc(-n2nc(C3(C(F)(F)F)CCC3)[nH]c2=O)ccc1Oc1ccnc(-c2cnn(C)c2)c1 [Example 43, 1-(6-methyl-5-((2-(1-methyl-1H-pyrazol-4-yl)pyridin-4-yl)oxy)pyridin-2-yl)-3-(1-(trifluoromethyl)cyclobutyl)-1H-1,2,4-triazol-5(4H)-one] | 0.1 to 1 | 0.1 to 1 |
| Cc1nc(-n2nc(C(C)(C)C)n(C)c2=O)ccc1Oc1ccnc(-c2cnn(C)c2)c1 [Example 13, 3-(tert-butyl)-4-methyl-1-(6-methyl-5-((2-(1-methyl-1H-pyrazol-4-yl)pyridin-4-yl)oxy)pyridin-2-yl)-1H-1,2,4-triazol-5(4H)-one] | 0.1 to 1 | 0.1 to 1 |
| Cc1nc(-n2nc(C3CCOCC3)[nH]c2=O)ccc1Oc1ccnc(-c2cnn(C)c2)c1 [Example 20, 1-(6-methyl-5-((2-(1-methyl-1H-pyrazol-4-yl)pyridin-4-yl)oxy)pyridin-2-yl)-3-(tetrahydro-2H-pyran-4-yl)-1H-1,2,4-triazol-5(4H)-one] | 0.1 to 1 | 0.1 to 1 |
| CCn1cc(-c2cc(Oc3ccc(-n4nc(C(C)(C)C)[nH]c4=O)nc3C)ccn2)cn1 [Example 38, 3-(tert-butyl)-1-(5-((2-(1-ethyl-1H-pyrazol-4-yl)pyridin-4-yl)oxy)-6-methylpyridin-2-yl)-1H-1,2,4-triazol-5(4H)-one] | 0.1 to 1 | 0.01 to 0.1 |
| Cc1nc(-n2nc(C(C)(C)C)[nH]c2=O)ccc1Oc1ccnc(NC(=O)N(C)C)c1 [Example 30, 3-(4-((6-(3-(tert-butyl)-5-oxo-4,5-dihydro-1H-1,2,4-triazol-1-yl)-2-methylpyridin-3-yl)oxy)pyridin-2-yl)-1,1-dimethylurea] | 0.1 to 1 | > 1 |
| COC(C)(C)c1nn(-c2ccc(Oc3ccnc(-c4cnn(C)c4)c3)c(C)n2)c(=O)[nH]1 [Example 16, 3-(2-methoxypropan-2-yl)-1-(6-methyl-5-((2-(1-methyl-1H-pyrazol-4-yl)pyridin-4-yl)oxy)pyridin-2-yl)-1H-1,2,4-triazol-5(4H)-one] | 0.1 to 1 | 0.1 to 1 |
| Cc1nc(-n2nc(C(C)(C)C)[nH]c2=O)ccc1Oc1ccnc(-c2cnco2)c1 [Example 39, 3-(tert-butyl)-1-(6-methyl-5-((2-(oxazol-5-yl)pyridin-4-yl)oxy)pyridin-2-yl)-1H-1,2,4-triazol-5(4H)-one] | 0.1 to 1 | 0.01 to 0.1 |
| Cn1cc(-c2cc(Oc3ccc(-n4nc(Cc5ccc(F)cc5)[nH]c4=O)nc3)ccn2)cn1 [Example 3, 3-(4-fluorobenzyl)-1-(5-((2-(1-methyl-1H-pyrazol-4-yl)pyridin-4-yl)oxy)pyridin-2-yl)-1H-1,2,4-triazol-5(4H)-one] | 0.01 to 0.1 | 0.01 to 0.1 |
| Cc1nc(-n2nc(C(C)C)[nH]c2=O)ccc1Oc1ccnc(-c2cnn(C)c2)c1 [Example 5, 3-isopropyl-1-(6-methyl-5-((2-(1-methyl-1H-pyrazol-4-yl)pyridin-4-yl)oxy)pyridin-2-yl)-1H-1,2,4-triazol-5(4H)-one] | 0.01 to 0.1 | 0.01 to 0.1 |
| Cc1nc(-n2nc(Cc3ccc(F)cc3)[nH]c2=O)ccc1Oc1ccnc(-c2cnn(C)c2)c1 [Example 1, 3-(4-fluorobenzyl)-1-(6-methyl-5-((2-(1-methyl-1H-pyrazol-4-yl)pyridin-4-yl)oxy)pyridin-2-yl)-1H-1,2,4-triazol-5(4H)-one] | 0.01 to 0.1 | 0.01 to 0.1 |
| COCC(C)(C)c1nn(-c2ccc(Oc3ccnc(-c4cnn(C)c4)c3)c(C)n2)c(=O)[nH]1 [Example 46, 3-(1-methoxy-2-methylpropan-2-yl)-1-(6-methyl-5-((2-(1-methyl-1H-pyrazol-4-yl)pyridin-4-yl)oxy)pyridin-2-yl)-1H-1,2,4-triazol-5(4H)-one] | 0.1 to 1 | 0.1 to 1 |

More lines, main results first:

| IC50 [1] [µM] | Compound | IC50 (M-NFS-60 cells) [µM] |
| --- | --- | --- |
| 0.01 to 0.1 | Cc1nc(-n2cc(C(C)(C)C)[nH]c2=O)ccc1Oc1ccnc(-c2cnn(C)c2)c1 [Example 48, 4-(tert-butyl)-1-(6-methyl-5-((2-(1-methyl-1H-pyrazol-4-yl)pyridin-4-yl)oxy)pyridin-2-yl)-1H-imidazol-2(3H)-one] | 0.01 to 0.1 |
| ≤ 0.01 | Cc1nc(-n2nc(C3CCCCC3)[nH]c2=O)ccc1Oc1ccnc(-c2cnn(C)c2)c1 [Example 6, 3-cyclohexyl-1-(6-methyl-5-((2-(1-methyl-1H-pyrazol-4-yl)pyridin-4-yl)oxy)pyridin-2-yl)-1H-1,2,4-triazol-5(4H)-one] | ≤ 0.01 |
| 0.01 to 0.1 | Cc1nc(-n2nc(C(C)(C)C)[nH]c2=O)ccc1Oc1ccnc(-c2ccc(C3CCN(C)CC3)cc2)c1 [Example 14, 3-(tert-butyl)-1-(6-methyl-5-((2-(4-(1-methylpiperidin-4-yl)phenyl)pyridin-4-yl)oxy)pyridin-2-yl)-1H-1,2,4-triazol-5(4H)-one] | 0.01 to 0.1 |
| 0.01 to 0.1 | Cc1cc(-n2nc(C(C)(C)C)[nH]c2=O)nc(C)c1Oc1ccnc(-c2cnn(C)c2)c1 [Example 33, 3-(tert-butyl)-1-(4,6-dimethyl-5-((2-(1-methyl-1H-pyrazol-4-yl)pyridin-4-yl)oxy)pyridin-2-yl)-1H-1,2,4-triazol-5(4H)-one] | 0.1 to 1 |
| 0.01 to 0.1 | CCC(C)(C)c1nn(-c2ccc(Oc3ccnc(-c4cnn(C)c4)c3)c(C)n2)c(=O)[nH]1 [Example 25, 1-(6-methyl-5-((2-(1-methyl-1H-pyrazol-4-yl)pyridin-4-yl)oxy)pyridin-2-yl)-3-(tert-pentyl)-1H-1,2,4-triazol-5(4H)-one] | 0.01 to 0.1 |
| ≤ 0.01 | Cc1nc(-n2nc(C3CCC3)[nH]c2=O)ccc1Oc1ccnc(-c2cnn(C)c2)c1 [Example 37, 3-cyclobutyl-1-(6-methyl-5-((2-(1-methyl-1H-pyrazol-4-yl)pyridin-4-yl)oxy)pyridin-2-yl)-1H-1,2,4-triazol-5(4H)-one] | 0.01 to 0.1 |
| 0.01 to 0.1 | Cc1cc(-n2nc(C(C)(C)C)[nH]c2=O)ncc1Oc1ccnc(-c2cnn(C)c2)c1 [Example 31, 3-(tert-butyl)-1-(4-methyl-5-((2-(1-methyl-1H-pyrazol-4-yl)pyridin-4-yl)oxy)pyridin-2-yl)-1H-1,2,4-triazol-5(4H)-one] | 0.01 to 0.1 |
| 0.01 to 0.1 | Cc1nc(-n2nc(CC(C)(C)C)[nH]c2=O)ccc1Oc1ccnc(-c2cnn(C)c2)c1 [Example 36, 1-(6-methyl-5-((2-(1-methyl-1H-pyrazol-4-yl)pyridin-4-yl)oxy)pyridin-2-yl)-3-neopentyl-1H-1,2,4-triazol-5(4H)-one] | 0.01 to 0.1 |
| 0.01 to 0.1 | Cc1cc(-c2cc(Oc3ccc(-n4nc(C(C)(C)C)[nH]c4=O)nc3C)ccn2)ccn1 [Example 9, 3-(tert-butyl)-1-(6-methyl-5-((2′-methyl-[2,4′-bipyridin]-4-yl)oxy)pyridin-2-yl)-1H-1,2,4-triazol-5(4H)-one] | 0.01 to 0.1 |
| 0.01 to 0.1 | Cc1nc(-n2nc(C(C)(C)C)oc2=O)ccc1Oc1ccnc(-c2cnn(C)c2)c1 [Example 49, 5-(tert-butyl)-3-(6-methyl-5-((2-(1-methyl-1H-pyrazol-4-yl)pyridin-4-yl)oxy)pyridin-2-yl)-1,3,4-oxadiazol-2(3H)-one] | 0.01 to 0.1 |
| 0.01 to 0.1 | Cn1cc(-c2cc(Oc3ccc(-n4nc(C(C)(C)C)[nH]c4=O)nc3)ccn2)cn1 [Example 4, 3-(tert-butyl)-1-(5-((2-(1-methyl-1H-pyrazol-4-yl)pyridin-4-yl)oxy)pyridin-2-yl)-1H-1,2,4-triazol-5(4H)-one] | 0.01 to 0.1 |
| 0.01 to 0.1 | Cc1ccc(-c2cc(Oc3ccc(-n4nc(C(C)(C)C)[nH]c4=O)nc3C)ccn2)cn1 [Example 10, 3-(tert-butyl)-1-(6-methyl-5-((6′-methyl-[2,3′-bipyridin]-4-yl)oxy)pyridin-2-yl)-1H-1,2,4-triazol-5(4H)-one] | 0.01 to 0.1 |
| ≤ 0.01 | Cc1nc(-n2nc(Cc3ccccc3)[nH]c2=O)ccc1Oc1ccnc(-c2cnn(C)c2)c1 [Example 2, 3-benzyl-1-(6-methyl-5-((2-(1-methyl-1H-pyrazol-4-yl)pyridin-4-yl)oxy)pyridin-2-yl)-1H-1,2,4-triazol-5(4H)-one] | 0.01 to 0.1 |
